Values quoted from earlier work, collected in publication PMC8513935.

Assay: log P octanol/water from commercial databases, averaged (the ESI)
Conditions: Octanol (wet), 25 C

log K of transfer, water to solvent | SMILES
1.97 log10 K | Cc1ccc(O)cc1
1.67 log10 K | CCCNCCC
4.8 log10 K | CC(C)CC(C)(C)C
1.51 log10 K | CCCCCO

SMILES | log K of transfer, water to solvent
CN(C)C | 0.19 log10 K

Assay: derived by the authors as gas->solvent minus gas->water (a hypothetical dry solvent; the ESI), not a two-phase measurement
Conditions: 1,2-Dichloroethane, 25 C

log K of transfer, water to solvent | SMILES
1.18 log10 K | Cc1ccc(O)cc1
0.72 log10 K | CCCCCO

Same assay, conditions: 2-Methylpropan-1-ol, 25 C

log K of transfer, water to solvent | SMILES
1.67 log10 K | CCCCCO

Same assay, conditions: 2-Methylpropan-2-ol, 25 C

log K of transfer, water to solvent | SMILES
4.76 log10 K | CC(C)CC(C)(C)C
1.75 log10 K | CCCCCO

Same assay, conditions: Acetone, 25 C

SMILES | log K of transfer, water to solvent
CN(C)C | -0.47 log10 K

Same assay, conditions: Benzene, 25 C

log K of transfer, water to solvent | SMILES
0.89 log10 K | Cc1ccc(O)cc1
1.05 log10 K | CCCNCCC
0.39 log10 K | CCCCCO

SMILES | log K of transfer, water to solvent
CN(C)C | -0.3 log10 K

Same assay, conditions: Butan-1-ol, 25 C

SMILES | log K of transfer, water to solvent
CN(C)C | -0.22 log10 K
CCCCCO | 1.61 log10 K

Same assay, conditions: Butanone, 25 C

log K of transfer, water to solvent | SMILES
5.09 log10 K | CC(C)CC(C)(C)C

Same assay, conditions: CCl4, 25 C

log K of transfer, water to solvent | SMILES
0.22 log10 K | Cc1ccc(O)cc1
0.4 log10 K | CCCCCO

SMILES | log K of transfer, water to solvent
CN(C)C | -0.23 log10 K

Same assay, conditions: Chlorobenzene, 25 C

log K of transfer, water to solvent | SMILES
0.8 log10 K | Cc1ccc(O)cc1
0.5 log10 K | CCCCCO

SMILES | log K of transfer, water to solvent
CN(C)C | -0.3 log10 K

Same assay, conditions: Chloroform, 25 C

log K of transfer, water to solvent | SMILES
1.06 log10 K | Cc1ccc(O)cc1
1.05 log10 K | CCCCCO

SMILES | log K of transfer, water to solvent
CN(C)C | 0.51 log10 K

Same assay, conditions: Cyclohexane, 25 C

log K of transfer, water to solvent | SMILES
-0.14 log10 K | Cc1ccc(O)cc1
-0.411 log10 K | CCCCCO

SMILES | log K of transfer, water to solvent
CN(C)C | -0.42 log10 K

Same assay, conditions: Decan-1-ol, 25 C

log K of transfer, water to solvent | SMILES
4.98 log10 K | CC(C)CC(C)(C)C
1.33 log10 K | CCCCCO

Same assay, conditions: Dichloromethane, 25 C

log K of transfer, water to solvent | SMILES
1.15 log10 K | Cc1ccc(O)cc1

Same assay, conditions: Diethyl Ether, 25 C

SMILES | log K of transfer, water to solvent
CN(C)C | -0.62 log10 K

Same assay, conditions: Ethanol, 25 C

SMILES | log K of transfer, water to solvent
CN(C)C | 0.32 log10 K

Same assay, conditions: Hexadecane, 25 C

log K of transfer, water to solvent | SMILES
-0.188 log10 K | Cc1ccc(O)cc1
0.671 log10 K | CCCNCCC
5.22 log10 K | CC(C)CC(C)(C)C
-0.244 log10 K | CCCCCO

SMILES | log K of transfer, water to solvent
CN(C)C | -0.73 log10 K

Same assay, conditions: Hexan-1-ol, 25 C

log K of transfer, water to solvent | SMILES
5.1 log10 K | CC(C)CC(C)(C)C
1.55 log10 K | CCCCCO

Same assay, conditions: Hexane, 25 C

log K of transfer, water to solvent | SMILES
-0.34 log10 K | Cc1ccc(O)cc1
0.037 log10 K | CCCCCO

SMILES | log K of transfer, water to solvent
CN(C)C | -0.424 log10 K

Same assay, conditions: Methanol, 25 C

log K of transfer, water to solvent | SMILES
1.58 log10 K | CCCCCO

Same assay, conditions: Octan-1-ol(dry), 25 C

SMILES | log K of transfer, water to solvent
CN(C)C | -0.41 log10 K
CCCCCO | 1.34 log10 K

Same assay, conditions: Pentan-1-ol, 25 C

log K of transfer, water to solvent | SMILES
4.97 log10 K | CC(C)CC(C)(C)C
1.6 log10 K | CCCCCO

Same assay, conditions: Perfluoroalkane, 25 C

log K of transfer, water to solvent | SMILES
-1.83 log10 K | Cc1ccc(O)cc1

Same assay, conditions: Propan-1-ol, 25 C

log K of transfer, water to solvent | SMILES
4.81 log10 K | CC(C)CC(C)(C)C
1.62 log10 K | CCCCCO

SMILES | log K of transfer, water to solvent
CN(C)C | 0.21 log10 K

Same assay, conditions: Propan-2-ol, 25 C

log K of transfer, water to solvent | SMILES
4.82 log10 K | CC(C)CC(C)(C)C
1.66 log10 K | CCCCCO

Same assay, conditions: Tetrahydrofuran, 25 C

log K of transfer, water to solvent | SMILES
5.53 log10 K | CC(C)CC(C)(C)C

Same assay, conditions: Toluene, 25 C

log K of transfer, water to solvent | SMILES
1.16 log10 K | CCCNCCC
0.44 log10 K | CCCCCO

SMILES | log K of transfer, water to solvent
CN(C)C | -0.36 log10 K

Assay: experimental, compiled by the authors from the literature (the ESI cites the sources)
Conditions: 1,2-Dichloroethane, 25 C

log K of transfer, gas to solvent | SMILES
5.68 log10 K | Cc1ccc(O)cc1
4.07 log10 K | CCCCCO

Same assay, conditions: 2-Methylpropan-1-ol, 25 C

log K of transfer, gas to solvent | SMILES
5.02 log10 K | CCCCCO

Same assay, conditions: 2-Methylpropan-2-ol, 25 C

log K of transfer, gas to solvent | SMILES
2.64 log10 K | CC(C)CC(C)(C)C
5.1 log10 K | CCCCCO

Same assay, conditions: Benzene, 25 C

log K of transfer, gas to solvent | SMILES
5.39 log10 K | Cc1ccc(O)cc1
3.73 log10 K | CCCNCCC
3.74 log10 K | CCCCCO

SMILES | log K of transfer, gas to solvent
CN(C)C | 2.05 log10 K

Same assay, conditions: Butan-1-ol, 25 C

SMILES | log K of transfer, gas to solvent
CN(C)C | 2.13 log10 K
CCCCCO | 4.96 log10 K

Same assay, conditions: Butanone, 25 C

log K of transfer, gas to solvent | SMILES
2.97 log10 K | CC(C)CC(C)(C)C

Same assay, conditions: CCl4, 25 C

log K of transfer, gas to solvent | SMILES
4.72 log10 K | Cc1ccc(O)cc1
3.75 log10 K | CCCCCO

SMILES | log K of transfer, gas to solvent
CN(C)C | 2.12 log10 K

Same assay, conditions: Chlorobenzene, 25 C

log K of transfer, gas to solvent | SMILES
5.3 log10 K | Cc1ccc(O)cc1
3.85 log10 K | CCCCCO

SMILES | log K of transfer, gas to solvent
CN(C)C | 2.05 log10 K

Same assay, conditions: Chloroform, 25 C

log K of transfer, gas to solvent | SMILES
5.56 log10 K | Cc1ccc(O)cc1
4.4 log10 K | CCCCCO

SMILES | log K of transfer, gas to solvent
CN(C)C | 2.86 log10 K

Same assay, conditions: Cyclohexane, 25 C

log K of transfer, gas to solvent | SMILES
4.36 log10 K | Cc1ccc(O)cc1
2.94 log10 K | CCCCCO

SMILES | log K of transfer, gas to solvent
CN(C)C | 1.93 log10 K

Same assay, conditions: Decan-1-ol, 25 C

log K of transfer, gas to solvent | SMILES
2.86 log10 K | CC(C)CC(C)(C)C
4.68 log10 K | CCCCCO

Same assay, conditions: Dichloromethane, 25 C

log K of transfer, gas to solvent | SMILES
5.65 log10 K | Cc1ccc(O)cc1

Same assay, conditions: Diethyl Ether, 25 C

SMILES | log K of transfer, gas to solvent
CN(C)C | 1.73 log10 K

Same assay, conditions: Ethanol, 25 C

SMILES | log K of transfer, gas to solvent
CN(C)C | 2.67 log10 K

Same assay, conditions: Hexadecane, 25 C

log K of transfer, gas to solvent | SMILES
4.31 log10 K | Cc1ccc(O)cc1
3.35 log10 K | CCCNCCC
3.1 log10 K | CC(C)CC(C)(C)C
3.1 log10 K | CCCCCO

SMILES | log K of transfer, gas to solvent
CN(C)C | 1.62 log10 K

Same assay, conditions: Hexan-1-ol, 25 C

log K of transfer, gas to solvent | SMILES
2.98 log10 K | CC(C)CC(C)(C)C
4.9 log10 K | CCCCCO

Same assay, conditions: Hexane, 25 C

log K of transfer, gas to solvent | SMILES
4.16 log10 K | Cc1ccc(O)cc1
3.39 log10 K | CCCCCO

SMILES | log K of transfer, gas to solvent
CN(C)C | 1.93 log10 K

Same assay, conditions: Methanol, 25 C

log K of transfer, gas to solvent | SMILES
4.93 log10 K | CCCCCO

Same assay, conditions: Octan-1-ol, 25 C

SMILES | log K of transfer, gas to solvent
CN(C)C | 1.94 log10 K
CCCCCO | 4.69 log10 K

Same assay, conditions: Pentan-1-ol, 25 C

log K of transfer, gas to solvent | SMILES
2.85 log10 K | CC(C)CC(C)(C)C
4.95 log10 K | CCCCCO

Same assay, conditions: Perfluoroalkane, 25 C

log K of transfer, gas to solvent | SMILES
2.67 log10 K | Cc1ccc(O)cc1

Same assay, conditions: Propan-1-ol, 25 C

log K of transfer, gas to solvent | SMILES
2.69 log10 K | CC(C)CC(C)(C)C
4.97 log10 K | CCCCCO

SMILES | log K of transfer, gas to solvent
CN(C)C | 2.56 log10 K

Same assay, conditions: Propan-2-ol, 25 C

log K of transfer, gas to solvent | SMILES
2.7 log10 K | CC(C)CC(C)(C)C
5.01 log10 K | CCCCCO

Same assay, conditions: Propanone, 25 C

SMILES | log K of transfer, gas to solvent
CN(C)C | 1.88 log10 K

Same assay, conditions: Tetrahydrofuran, 25 C

log K of transfer, gas to solvent | SMILES
3.41 log10 K | CC(C)CC(C)(C)C

Same assay, conditions: Toluene, 25 C

log K of transfer, gas to solvent | SMILES
3.84 log10 K | CCCNCCC
3.79 log10 K | CCCCCO

SMILES | log K of transfer, gas to solvent
CN(C)C | 1.99 log10 K

Same assay, conditions: Water, 25 C

log K of transfer, gas to solvent | SMILES
4.5 log10 K | Cc1ccc(O)cc1
2.68 log10 K | CCCNCCC
-2.12 log10 K | CC(C)CC(C)(C)C
3.35 log10 K | CCCCCO

SMILES | log K of transfer, gas to solvent
CN(C)C | 2.35 log10 K
